Laboratory results from paper PMC8119212 (JCI Insight, 2021).
“Also recorded” adds a separate entry of the source.

What was measured:
[1] = system: ACVR1^Q207D-transgenic mouse (CAG-Z-eGFP-caALK2-Tg); experiment: ACVR1^Q207D-Tg mouse model of heterotopic ossification; settings: for mobility (passive range of motion): 6 mg/kg intraperitoneally twice daily, not shown
Description: In these animals, activation of the ACVR1^Q207D transgene and associated GFP reporter is mediated by a single intramuscular injection of Adenovirus expressing Cre recombinase (Ad.Cre) in the left hindlimb on P7. This induces the expression of the human ACVR1^Q207D transgene, as well as muscle necrosis and inflammation, which together result in the formation of heterotopic bone lesions within 7–10 days following Ad.Cre injection ([16]). This model is believed to recapitulate aspects of clinical HO and FOP, in which muscle injury and inflammation potentiate the formation of heterotopic bone in soft tissues.
(D) Representative hindlimb scoring system. All range of motion scoring was performed by 2 separate operators who were blinded to the treatment condition of the animal.
Mice were maintained in accordance with IACUC guidelines under approved experimental protocols. Cre-inducible ACVR1^Q207D (CAG-Z-eGFP-caACVR1-Tg) transgenic mice were a gift from Yuji Michina (University of Michigan, Ann Arbor, Michigan, USA) as previously described ([31]). Acvr1^[R206H]FlEx/+ mice were generated as previously described ([13]). Heterotopic bone formation in these mice was introduced via single retro-popliteal injection of adenoviral Cre-recombinase at 1 × 10^8 PFU at P7. […] Bone formation as a function of a loss of passive range of motion, via dorsiflexion of the left ankle joint was assessed daily. Scores were assessed by 2 independent observers blinded to genotype and treatment. […] To monitor the progression of HO during the in vivo studies, x-ray radiographs were also imaged at various time points. Mice were anesthetized using ketamine at 100 mg/kg and imaged nonterminally in the prone position with tibial lateralization and hip abduction, allowing for reproducible positioning. Radiographs were obtained using 30-second scans and 50 kV exposures (MS FX In Vivo Pro: Carestream Imaging). […] After reconstruction, regions of interest were chosen and exported into DICOM format, and analyzed by Osirix analysis software. Fixed soft tissues and bone were stained with alizarin red and Alcian blue as previously described ([62]).

RIPK2 = RIPK2 (Homo sapiens, UniProt O43353); experiment: Caliper kinase profiling (Nanosyn), RIPK2; format: biochemical
Sequence of RIPK2 (O43353 whole entry): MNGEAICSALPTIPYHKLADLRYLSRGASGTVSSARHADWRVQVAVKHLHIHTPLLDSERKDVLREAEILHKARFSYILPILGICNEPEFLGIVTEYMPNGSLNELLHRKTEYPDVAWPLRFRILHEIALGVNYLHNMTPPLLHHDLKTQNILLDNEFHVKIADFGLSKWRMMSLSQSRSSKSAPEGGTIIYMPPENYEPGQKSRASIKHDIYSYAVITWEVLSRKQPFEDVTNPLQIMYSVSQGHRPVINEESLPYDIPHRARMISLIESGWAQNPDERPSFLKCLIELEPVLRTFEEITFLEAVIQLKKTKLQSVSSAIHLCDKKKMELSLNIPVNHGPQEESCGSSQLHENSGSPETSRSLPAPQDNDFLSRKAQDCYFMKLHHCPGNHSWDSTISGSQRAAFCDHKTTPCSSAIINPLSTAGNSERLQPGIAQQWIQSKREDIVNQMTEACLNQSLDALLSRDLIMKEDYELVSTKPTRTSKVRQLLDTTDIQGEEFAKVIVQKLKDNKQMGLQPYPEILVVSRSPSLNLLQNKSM

TNIK = TNIK (Homo sapiens, UniProt Q9UKE5); experiment: Caliper kinase profiling (Nanosyn), TNIK; format: biochemical
ARG (ABL2) = ARG (ABL2) (Homo sapiens, UniProt P42684); experiment: Caliper kinase profiling (Nanosyn), ARG; format: biochemical
Sequence of ARG (ABL2) (P42684 whole entry): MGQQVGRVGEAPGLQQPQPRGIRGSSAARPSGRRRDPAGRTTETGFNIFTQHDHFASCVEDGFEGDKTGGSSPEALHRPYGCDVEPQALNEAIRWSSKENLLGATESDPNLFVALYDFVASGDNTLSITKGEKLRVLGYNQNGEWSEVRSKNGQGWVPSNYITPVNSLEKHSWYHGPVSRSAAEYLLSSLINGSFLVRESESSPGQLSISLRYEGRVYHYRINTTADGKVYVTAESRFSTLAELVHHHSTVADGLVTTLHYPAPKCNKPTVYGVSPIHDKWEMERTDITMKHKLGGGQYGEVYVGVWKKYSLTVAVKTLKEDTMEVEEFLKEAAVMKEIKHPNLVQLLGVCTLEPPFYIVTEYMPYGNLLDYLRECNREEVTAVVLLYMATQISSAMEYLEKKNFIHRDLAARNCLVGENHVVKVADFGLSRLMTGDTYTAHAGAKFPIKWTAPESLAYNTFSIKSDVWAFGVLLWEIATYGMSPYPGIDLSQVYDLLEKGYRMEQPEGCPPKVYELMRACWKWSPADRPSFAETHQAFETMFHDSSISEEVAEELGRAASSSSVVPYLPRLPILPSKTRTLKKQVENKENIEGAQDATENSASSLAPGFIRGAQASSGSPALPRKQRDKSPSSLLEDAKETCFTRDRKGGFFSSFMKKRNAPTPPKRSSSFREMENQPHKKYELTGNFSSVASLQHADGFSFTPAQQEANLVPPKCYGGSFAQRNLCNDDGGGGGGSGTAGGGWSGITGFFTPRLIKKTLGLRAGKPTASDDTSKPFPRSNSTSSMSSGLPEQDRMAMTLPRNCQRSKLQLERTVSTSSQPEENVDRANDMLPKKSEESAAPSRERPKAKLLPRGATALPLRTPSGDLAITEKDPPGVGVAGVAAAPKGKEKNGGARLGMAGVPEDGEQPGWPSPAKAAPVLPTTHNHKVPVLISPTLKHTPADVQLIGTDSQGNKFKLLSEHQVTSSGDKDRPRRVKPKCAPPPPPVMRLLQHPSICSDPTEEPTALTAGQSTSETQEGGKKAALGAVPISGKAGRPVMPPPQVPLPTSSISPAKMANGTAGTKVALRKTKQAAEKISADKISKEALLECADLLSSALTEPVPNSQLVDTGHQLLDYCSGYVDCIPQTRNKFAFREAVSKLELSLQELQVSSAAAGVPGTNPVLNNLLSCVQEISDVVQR

HCK = HCK (Homo sapiens, UniProt P08631); experiment: Caliper kinase profiling (Nanosyn), HCK; format: biochemical
Sequence of HCK (P08631 whole entry): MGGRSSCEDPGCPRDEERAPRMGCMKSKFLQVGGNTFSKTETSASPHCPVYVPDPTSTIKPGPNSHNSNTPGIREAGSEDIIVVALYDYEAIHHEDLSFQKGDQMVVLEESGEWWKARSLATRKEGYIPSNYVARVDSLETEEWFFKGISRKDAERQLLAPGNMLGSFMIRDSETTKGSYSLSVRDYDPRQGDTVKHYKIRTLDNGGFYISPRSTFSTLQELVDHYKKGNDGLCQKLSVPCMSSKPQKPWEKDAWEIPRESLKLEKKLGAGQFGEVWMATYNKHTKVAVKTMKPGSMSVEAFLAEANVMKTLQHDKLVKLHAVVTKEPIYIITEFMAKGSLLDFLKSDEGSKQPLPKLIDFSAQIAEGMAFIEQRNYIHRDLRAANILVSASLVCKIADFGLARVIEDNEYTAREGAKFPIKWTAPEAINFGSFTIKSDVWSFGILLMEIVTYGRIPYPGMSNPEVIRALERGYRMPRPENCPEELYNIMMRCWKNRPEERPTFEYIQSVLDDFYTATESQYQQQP

LYN = LYN (Homo sapiens, UniProt P07948); experiment: Caliper kinase profiling (Nanosyn), LYN; format: biochemical
Sequence of LYN (P07948 whole entry, the tested form may be a part): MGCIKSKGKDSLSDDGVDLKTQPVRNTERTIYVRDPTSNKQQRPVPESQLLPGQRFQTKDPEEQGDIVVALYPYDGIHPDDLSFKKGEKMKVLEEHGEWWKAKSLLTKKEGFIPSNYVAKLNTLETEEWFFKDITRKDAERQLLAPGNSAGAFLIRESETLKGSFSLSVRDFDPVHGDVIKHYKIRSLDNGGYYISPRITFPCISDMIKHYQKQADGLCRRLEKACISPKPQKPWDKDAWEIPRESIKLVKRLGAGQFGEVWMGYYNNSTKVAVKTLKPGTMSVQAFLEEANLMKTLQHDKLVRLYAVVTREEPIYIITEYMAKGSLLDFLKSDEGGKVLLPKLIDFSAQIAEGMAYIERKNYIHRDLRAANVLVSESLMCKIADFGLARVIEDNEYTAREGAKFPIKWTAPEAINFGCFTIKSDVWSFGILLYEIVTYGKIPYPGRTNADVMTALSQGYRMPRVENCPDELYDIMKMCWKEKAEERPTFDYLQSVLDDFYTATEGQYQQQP

[2] = biological target: T1, recombinant ALK1 kinase domain (Homo sapiens, UniProt P37023); experiment: LANCE Ultra TR-FRET kinase assay, ALK1; format: biochemical; settings: 10 nM kinase, 50 μM peptide substrate, 10 μM ATP
T1 construct: purified recombinant ALK1-6 kinase domains; purchased Life Technology PV4883
T1 sequence (P37023 202-492 limits assumed): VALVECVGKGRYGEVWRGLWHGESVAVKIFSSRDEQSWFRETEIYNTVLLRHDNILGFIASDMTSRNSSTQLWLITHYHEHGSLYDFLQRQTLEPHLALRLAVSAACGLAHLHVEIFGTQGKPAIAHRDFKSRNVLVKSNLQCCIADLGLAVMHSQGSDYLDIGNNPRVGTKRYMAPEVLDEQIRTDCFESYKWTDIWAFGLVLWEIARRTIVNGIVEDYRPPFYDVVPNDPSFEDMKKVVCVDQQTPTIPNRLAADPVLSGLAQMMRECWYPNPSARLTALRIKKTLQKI
Description: (§1) Data shown are plotted as mean ± SD. (n = 3 independent replicates). […] (n = 3 replicates). […] Data shown are plotted as mean ± SD. (n ≥ 3 independent replicates).
(§2) Recombinant ALK1 was obtained from Life Technology (catalog PV4883). Recombinant ALK2 to ALK6 were purchased from Carna Bioscience (catalog 09-134). A LANCE Ultra TR-FRET kinase assay was used for measurements of enzyme activities that included a ULight-labeled (Thr-1342) peptide substrate (catalog TRF0130-M, PerkinElmer) and a Europium-labeled anti-phospho peptide antibody (catalog TRF0218-M). The kinase reaction was carried out in a buffer containing 10 mM MgCl2, 3 mM MnCl2, 0.005% Tween-20, 2 mM DTT, and 50 mM HEPES, pH 7.0. The details of the enzyme assays will be reported in a separate paper (our unpublished observations). Briefly, 2.5 μL/well kinase protein (10 nM final) was dispensed to a white solid 1536-well plate followed by addition of 23 nL/well compound diluted in DMSO using a Pin-tool station (Wako-Kalypsis). After a 10-minute incubation at room temperature, 2.5 μL/well substrate solution (50 μM peptide and 10 μM ATP, final) was added, and the assay plate was incubated for 60 minutes at room temperature. […] The signals of time-resolved fluorescence resonance energy transfer (TR-FRET) assay were measured in an Envision plate reader (PerkinElmer) with a TR-FRET mode (Ex = 320, Em1 = 665, and Em2 = 615 nm).

[3] = biological target: T2, recombinant ALK3 kinase domain (Homo sapiens, UniProt P36894); experiment: LANCE Ultra TR-FRET kinase assay, ALK3; format: biochemical; settings: 10 nM kinase, 50 μM peptide substrate, 10 μM ATP
T2 construct: purified recombinant ALK1-6 kinase domains; purchased Carna Bioscience 09-134
T2 sequence (P36894 234-525 limits assumed): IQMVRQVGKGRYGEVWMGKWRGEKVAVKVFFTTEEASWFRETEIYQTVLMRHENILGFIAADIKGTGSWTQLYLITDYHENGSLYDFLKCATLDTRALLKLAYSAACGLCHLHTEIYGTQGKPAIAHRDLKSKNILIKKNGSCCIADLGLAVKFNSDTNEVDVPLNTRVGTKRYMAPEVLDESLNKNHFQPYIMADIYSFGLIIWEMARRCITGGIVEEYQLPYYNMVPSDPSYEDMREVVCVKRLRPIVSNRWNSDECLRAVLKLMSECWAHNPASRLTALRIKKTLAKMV
Description: as §1, §2

[4] = biological target: T3, recombinant ALK4 kinase domain (Homo sapiens, UniProt P36896); experiment: LANCE Ultra TR-FRET kinase assay, ALK4; format: biochemical; settings: 10 nM kinase, 50 μM peptide substrate, 10 μM ATP
T3 construct: purified recombinant ALK1-6 kinase domains; purchased Carna Bioscience 09-134
T3 sequence (P36896 207-497 limits assumed): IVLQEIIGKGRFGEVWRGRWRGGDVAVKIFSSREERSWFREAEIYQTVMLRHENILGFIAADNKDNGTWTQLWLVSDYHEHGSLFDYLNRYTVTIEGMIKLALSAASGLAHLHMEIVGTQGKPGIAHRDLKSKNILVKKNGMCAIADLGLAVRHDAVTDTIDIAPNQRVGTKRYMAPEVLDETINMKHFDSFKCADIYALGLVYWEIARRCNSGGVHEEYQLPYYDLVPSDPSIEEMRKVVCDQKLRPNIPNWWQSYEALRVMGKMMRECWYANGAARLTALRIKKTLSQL

[5] = biological target: T4, recombinant ALK5 kinase domain (Homo sapiens, UniProt P36897); experiment: LANCE Ultra TR-FRET kinase assay, ALK5; format: biochemical; settings: 10 nM kinase, 50 μM peptide substrate, 10 μM ATP
T4 construct: purified recombinant ALK1-6 kinase domains; purchased Carna Bioscience 09-134
T4 sequence (P36897 205-495 limits assumed): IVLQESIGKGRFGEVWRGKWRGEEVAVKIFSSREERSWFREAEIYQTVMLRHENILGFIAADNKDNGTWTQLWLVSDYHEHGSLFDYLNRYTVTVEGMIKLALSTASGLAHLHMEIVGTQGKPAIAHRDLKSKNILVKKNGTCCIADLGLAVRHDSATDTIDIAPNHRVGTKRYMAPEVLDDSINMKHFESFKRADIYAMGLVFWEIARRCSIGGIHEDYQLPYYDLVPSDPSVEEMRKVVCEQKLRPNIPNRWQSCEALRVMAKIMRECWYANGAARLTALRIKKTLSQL

[6] = biological target: T5, recombinant ALK6 kinase domain (Homo sapiens, UniProt O00238); experiment: LANCE Ultra TR-FRET kinase assay, ALK6; format: biochemical; settings: 10 nM kinase, 50 μM peptide substrate, 10 μM ATP
T5 construct: purified recombinant ALK1-6 kinase domains; purchased Carna Bioscience 09-134
T5 sequence (O00238 204-494 limits assumed): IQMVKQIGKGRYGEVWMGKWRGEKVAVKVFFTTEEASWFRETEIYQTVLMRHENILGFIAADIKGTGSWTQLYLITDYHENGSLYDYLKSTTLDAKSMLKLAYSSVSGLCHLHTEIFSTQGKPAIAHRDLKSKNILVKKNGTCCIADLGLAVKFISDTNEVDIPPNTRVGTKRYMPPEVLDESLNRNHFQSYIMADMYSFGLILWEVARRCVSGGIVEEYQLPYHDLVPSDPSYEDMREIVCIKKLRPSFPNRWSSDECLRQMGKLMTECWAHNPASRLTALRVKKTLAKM
Description: as §1, §2

BMP2 signaling = experiment: cells; settings: Homo sapiens, MDA-MB-231
Procedure: (§3) Reactions contained 10 nM kinase, 50 μM peptide substrate, and 10 μM ATP. Data shown are plotted as mean ± SD. (n = 3 independent replicates). […] Data shown are representative of more than 3 independent experiments, with data plotted as mean ±SEM. (n = 3 replicates). […] Data shown are plotted as mean ± SD. (n ≥ 3 independent replicates).
(§4) For subsequent investigations of ligand-dependent receptor signaling we used MDA-MB-231 cells stably expressing either the BRE-Luc or CAGA-Luc construct.
(§5) MDA-MB-231 cells stably expressing BRE-Luc or CAGA-Luc were generously provided by Caroline Hill (Francis Crick Institute). […] LUC activity was measured using the Promega Dual LUC Reporter Assay system and percentage activity determined compared with cells treated with growth factor and no inhibitor. Growth factors (Peprotech) were used at the following concentrations: 500 ng/mL BMP2, 10 ng/mL BMP4, 500 ng/mL BMP6, 500 ng/mL BMP7, 4 ng/mL TGF-β, and 200 ng/mL activin A. Experiments were repeated at least 3 times and plotted as mean ± SD.

BMP4 signaling = experiment: cells; settings: Homo sapiens, MDA-MB-231
Procedure: as §3, §4, §5

BMP6 signaling = experiment: cells; settings: Homo sapiens, MDA-MB-231
Procedure: as §3, §4, §5

BMP7 signaling = experiment: cells; settings: Homo sapiens, MDA-MB-231
Procedure: as §3, §4, §5

activin A signaling = experiment: cells; settings: Homo sapiens, MDA-MB-231
Procedure: as §3, §4, §5

C2C12 cells = settings: mouse
Procedure: (§6) Inhibition of the BMP receptors caALK1, caALK2, and caALK3 was assessed via the activity of a BMP-response element LUC reporter (BRE-Luc) stably expressed in the C2C12 cell line, whereas the activin (caALK4) and TGF-β (caALK5) receptors were profiled via a CAGA-Luc reporter construct stably expressed in HEK293 cells (Figure 2B). […] Cell viability was assayed with an MTT (3-[4,5-dimethylthiazol-2-yl]-2,5-diphenyl tetrazolium bromide) colorimetric assay (Promega) per the manufacturer’s instructions.
(§7) lines was determined using the MTT cell viability assay . Data were plotted as mean + S.E.M. and
(§8) (1 picture or pasted object on this page, not shown here)

HEK293 cells = settings: human
Procedure: as §6, §7, §8

zebrafish embryos = experiment: Zebrafish embryo dorsalization; format: in vivo; settings: incubation starting at 0.5 hours after fertilization
Procedure: Dorsoventral axis specification during embryogenesis is regulated by the activity of BMP signaling agonists and antagonists ([30]).
Zebrafish embryos were treated with varying inhibitor concentrations from less than or equal to 0.5 hours after fertilization. Inhibitor stocks (20 mM) were diluted in fish water from DMSO. Embryos were scored according to Mullins et al. ([61]).

[7] = system: TGF-β–dependent phosphorylation of SMAD2; settings: C2C12 cells; Western blot
TGF-β signaling = experiment: cells; settings: Homo sapiens, MDA-MB-231
[8] = cited from earlier work
[9] = system: BMP7-induced phosphorylation of SMAD1/5; experiment: Western blot, BMP7-induced phospho-SMAD1/5 in C2C12 cells; settings: 100 nM saracatinib
[10] = biological target: ALK2 (WT) GS and kinase domain (Homo sapiens, UniProt Q04771); experiment: DSF thermal shift, wild-type ALK2; format: binding
Sequence of ALK2 (WT) GS and kinase domain (Q04771 172-499): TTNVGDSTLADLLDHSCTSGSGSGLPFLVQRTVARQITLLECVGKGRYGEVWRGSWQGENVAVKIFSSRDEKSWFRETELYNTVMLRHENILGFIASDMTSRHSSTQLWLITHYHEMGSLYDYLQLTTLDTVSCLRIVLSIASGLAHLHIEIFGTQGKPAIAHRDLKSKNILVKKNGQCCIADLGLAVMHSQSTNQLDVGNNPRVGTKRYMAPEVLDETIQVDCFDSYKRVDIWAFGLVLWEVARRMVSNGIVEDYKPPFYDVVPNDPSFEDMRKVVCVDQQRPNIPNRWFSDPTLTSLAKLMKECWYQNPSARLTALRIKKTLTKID

## c1cc(-c2cnn3cc(-c4ccc(N5CCNCC5)cc4)cnc23)c2cccnc2c1 [LDN-212854]
[1]; 6 mg/kg i.p. twice daily
  weight loss relative to vehicle-treated animals: 10%–25%
[1]
  mobility (passive range of motion): almost entirely preserved

## CN1CCN(CCOc2cc(OC3CCOCC3)c3c(Nc4c(Cl)ccc5c4OCO5)ncnc3c2)CC1 [saracatinib]
RIPK2
  inhibition at 0.1 µM: > 50%
TNIK
  inhibition at 0.1 µM: > 50%
ARG (ABL2)
  inhibition at 0.1 µM: > 50%
HCK
  inhibition at 0.1 µM: > 50%
LYN
  inhibition at 0.1 µM: > 50%
[2]
  IC50: 0.019 µM
[3]
  IC50: 0.621 µM
[4]
  IC50: 3.9 µM
[5]
  IC50: 6.89 µM
[6]
  IC50: 6.13 µM
BMP2 signaling
  IC50: 0.061 µM
BMP4 signaling
  IC50: 0.131 µM
BMP6 signaling
  IC50: 0.0089 µM
BMP7 signaling
  IC50: 0.0055 µM
Activin A signaling
  IC50: 0.072 µM
C2C12 cells
  concentration up to which well tolerated: approximately 40 μM
HEK293 cells
  concentration up to which well tolerated: approximately 40 μM
Zebrafish embryos
  cyclopia or mesoderm specification phenotypes: no evidence of cyclopia or phenotypes suggesting inhibition of mesoderm specification
  dorsalization phenotype: dorsalized phenotype that increased in severity in a dose-dependent manner
[7]
  inhibitor concentration at which TGF-β–dependent phosphorylation of SMAD2 was blocked: 5 µM
TGF-β signaling
  IC50: 0.305 µM
[8]
  t1/2: approximately 40 hours
[8]; doses up to 125 mg daily for 9–12 months, phase II
  primary side effect: gastrointestinal discomfort
[8]; healthy volunteers
  daily dose up to which safe: ≤ 250 mg
[8]; previous oncology trials, higher doses
  adverse effects associated with higher doses: neutropenia and thrombocytopenia
[9]
  BMP7-induced phosphorylation of SMAD1/5: completely inhibited

## c1ccc2c(-c3cnn4cc(-c5ccc(N6CCNCC6)cc5)cnc34)ccnc2c1 [LDN-193189]
[1]
  mobility (passive range of motion): almost entirely preserved

## COc1cc2c(Nc3ccc(Br)cc3F)ncnc2cc1OCC1CCN(C)CC1 [vandetanib]
[10]; Supplemental Figure 1C
  binding to ALK2 (in words): does not show any notable binding to ALK2
[1]; 25 mg/kg i.p. twice daily for 28 days
  HO formation / range of motion: no evidence of improvement in radiographic HO or range-of motion; also recorded: did not block HO formation

## COc1cc(N2CCC(N3CCN(C)CC3)CC2)ccc1Nc1ncnc(Nc2ccccc2S(=O)(=O)C(C)C)n1 [ASP3026]
[10]; ALK2 WT, 2 μM protein, 12.5 μM compound
  ΔTm (thermal shift): 10.7 °C
